Data taken from patent US9258995B2, “Organ cold storage composition and methods of use” (BOARD OF TRUSTEES OF THE UNIVERSITY OF ARKANSAS, priority 2009, dated 2016).
“Also recorded” adds a separate entry of the source.

Legend:
NRK cells [1] = experiment: MitoSOX Red mitochondrial superoxide generation, cold storage in vitro model; assay type: cell-based, rat; settings: 4 h CS at 4° C. in UW, 1 μM
Description: Normal rat kidney proximal tubular cells (NRK-52E; American Type Culture Collection, Manassas, Va.) were maintained in six-well 100 or 150-mm, or 150-mm plates in a humidified incubator gassed with 5% CO2 and 95% air at 37° C. in DMEM (Invitrogen, Carlsbad, Calif.) containing 5% fetal calf serum (FCS). Cells were grown to 60% confluence and divided into four treatment groups: 1) untreated (Untx), 2) CS, 3) CS+MitoQ, and 4) CS+DecylTPP. Untreated cells remained at 37° C. in DMEM containing 5% FCS (group 1). […]
MitoSOX Red (Invitrogen) was used to measure mitochondrial superoxide generation during CS. […] Fluorescence was visualized using an Eclipse E800 microscope (Nikon, Melville, N.Y.) with a rhodamine filter using a water immersion objective (60×). Fluorescent images of NRK cells were captured with equal exposure times and quantified by averaging the mean intensity fluorescence of five random cells in three different fields using Nikon N is Elements software. In separate experiments, cells were grown on coverslips, preloaded with MitoSOX Red before treatment (groups 1-4), and evaluated for mitochondrial superoxide generation using a Hitachi F-2500 spectrofluorometer (Hitachi, Tokyo, Japan) equipped with a coverslip holder using two different excitation wavelengths: 396 and 510 nm with the emission measured at 580 nm as previously described. […]

rat kidneys [2] = experiment: Periodic acid-Schiff morphological assessment of renal injury during CS; settings: 4 h CS, 100 μM
Description: (§1) All animals were treated according to the National Institutes of Health Guide for the Care and Use of Laboratory Animals and the University of Arkansas for Medical Sciences Institutional Animal Care and Use Committee guidelines. Male Fischer 344 inbred rats (Charles Rivers Laboratories, Inc., Wilmington, Mass.) weighing between 250 and 300 g were anesthetized with ethrane, followed by shaving and prepping with betadine. […] Bulldog clamps were placed on the aorta and vena cava (proximal and distal to the renal vessels) to prevent blood flow to the kidneys. A 22-gauge surgical needle was used to puncture the rat's aorta to flush the renal grafts with saline (10 ml per kidney) using a small catheter. Once the kidneys started to turn light brown (perfusion), another vent was formed in the vena cava to allow blood flow from the kidneys. Once both kidneys were completely flushed, the right kidney was recovered and served as a control (group 1), and the left kidney was exposed to CS alone for 4 h at 4° C. […]
Renal sections were assessed for tissue injury using the periodic acid-Schiff reaction. […] Morphological evaluation of tubular dilation, brush border loss, and cellular debris/tubular cast formation were performed blindly with light microscopy and assessed semiquantitatively according to the following scoring system: 0, no changes; 1, mild changes; 2, moderate changes, and 3, severe changes.

porcine kidneys = experiment: Nitrotyrosine staining of porcine kidneys during cold preservation; design: dose or concentration left out as unconfirmed
Description: FIG. 14 depicts micrographs and plots showing increased nitrotyrosine protein expression detected during cold preservation. (A) Representative images showing MitoQ (100 mM) mediated reduction of nitrotyrosine staining. (B) Expression level of total (combined cortex and medulla) nitrotyrosine was evaluated and scored. (C) Expression level of cortical and medulla nitrotyrosine was evaluated and scored. Error bar indicates Mean SEM (n=4). *P<0.05 compared to untreated kidneys at 24 and 48 hr within the cortex.
Nitrotyrosine staining and nitrotyrosine expression levels were used to determine protective effect of MitoQ on porcine kidneys during SC.

NRK cells [3] = experiment: Available nitric-oxide levels, CS NRK cell model; assay type: cell-based, rat; settings: 4-h CS (data not shown)
Text: Nitric oxide is a free radical that is well known to interact with superoxide to form peroxynitrite. It is generated by nitric-oxide synthase (NOS) and is an important signaling molecule in many physiological processes. Few reports have evaluated the effect of cold ischemia alone on NOS protein levels or activity.

rat kidneys [4] = experiment: TUNEL staining of renal cell death during CS; settings: 4 h CS, 100 μM
Description: as §1, with “kidneys.” for “kidneys. Once both kidneys were completely flushed, the right kidney was recovered and served as a control (group 1), and the left kidney was exposed to CS alone for 4 h at 4° C.”
Cell cytotoxicity was determined using the LDH-Cytotoxicity Assay Kit II (Biovision Research Products, Mountain View, Calif.) according to the manufacturer's instructions. Absorbance was measured at 450 nm using a SpectraMax 190 microplate reader and SpectraMax software (Molecular Devices, Sunnyvale, Calif.). Renal cell death was determined using TUNEL staining. […] The amount of cell death was calculated by averaging the number of cells positive for TUNEL (brown staining) in 10 different fields (cortex and medulla) (20×). […]

NRK cells [5] = experiment: LDH cytotoxicity assay, CS and CS plus rewarming; assay type: cell-based; settings: 1 μM
Description: Normal rat kidney proximal tubular cells (NRK-52E; American Type Culture Collection, Manassas, Va.) were maintained in six-well 100 or 150-mm, or 150-mm plates in a humidified incubator gassed with 5% CO2 and 95% air at 37° C. in DMEM (Invitrogen, Carlsbad, Calif.) containing 5% fetal calf serum (FCS). Cells were grown to 60% confluence and divided into four treatment groups: 1) untreated (Untx), 2) CS, 3) CS+MitoQ, and 4) CS+DecylTPP. Untreated cells remained at 37° C. in DMEM containing 5% FCS (group 1). CS was initiated by washing cells with cold PBS (Invitrogen) twice and storing them in UW/Viaspan solution alone (4 h at 4° C.) (group 2), CS+MitoQ (1 μM) (group 3), or CS+DecylTPP (1 μM) (group 4). In separate experiments, cells were exposed to CS plus RW by replacing UW solution alone or UW solution containing MitoQ or DecylTPP with DMEM containing 5% FCS overnight (18 h at 37° C.).
Cell cytotoxicity was determined using the LDH-Cytotoxicity Assay Kit II (Biovision Research Products, Mountain View, Calif.) according to the manufacturer's instructions. Absorbance was measured at 450 nm using a SpectraMax 190 microplate reader and SpectraMax software (Molecular Devices, Sunnyvale, Calif.). Renal cell death was determined using TUNEL staining. Kidney sections were deparaffinized, rehydrated, and exposed to antigen retrieval (20-min incubation at 95° C. with 10 mM sodium citrate buffer, pH 6.0) followed by washing with distilled water and quenching of endogenous peroxidase. Sections were immersed in TdT labeling buffer and then incubated in a humidified chamber with the labeling reaction mix from the TAGS 2 TdT-DAB In Situ Apoptosis Detection kit (Trevigen, Inc., Gaithersburg, Md.) for 1 h at room temperature. The reaction was stopped with TdT stop buffer, and slides were subsequently washed with PBS. Sections were incubated for 10 min with streptavidin-HRP followed by development with diaminobenzidine solution, counterstaining with Mayer's hematoxylin, dehydration, and mounting with Cytoseal-60. The amount of cell death was calculated by averaging the number of cells positive for TUNEL (brown staining) in 10 different fields (cortex and medulla) (20×). All images were taken at equal exposure times (40×oil).

[6] = porcine kidneys during cold preservation

In the case of COC1=C(OC)C(=O)C(CCCCCCCCCC[P+](c2ccccc2)(c2ccccc2)c2ccccc2)=C(C)C1=O [MitoQ, mitoquinone], the “CS-induced mitochondrial superoxide generation (MitoSOX Red)” value (NRK cells [1]) was “significant protection”, the “renal histology / renal injury (periodic acid-Schiff staining)” value (rat kidneys [2]) was “improved renal histology significantly” and the “nitrotyrosine expression levels, combined cortex and medulla” value (porcine kidneys; [6]) was “reduced”. For the same molecule, the nitrotyrosine staining (porcine kidneys; [6]) was “significantly decreased; also recorded: reduction”, the “nitrotyrosine expression levels in the cortex” value (porcine kidneys; porcine kidneys, 24 and 48 hr) was “significantly lower” and the available nitric-oxide levels (NRK cells [3]) was “no effect”. The “decrease of cell death (TUNEL) compared with CS kidneys” value (rat kidneys [4]) was roughly 2 fold, the “decrease of cell death (LDH cytotoxicity)” value (NRK cells [5]; CS alone) was “approximately 2 fold” and the “decrease of cell death (LDH cytotoxicity)” value (NRK cells [5]; CS.RW) was “approximately 2 fold”.
